For twelve compounds, half-life and IC50 results are on record in ChEMBL document CHEMBL4417631, “Oral peptide inhibitors of interleukin-23 receptor and their use to treat inflammatory bowel diseases” (2017).

A short description of data set [1]: Half life in simulated intestinal fluid at 20 uM by LC-MS/MS analysis. The data set is classed as ADME.
Data set [2] has as its target T1, Interleukin-23 receptor (Homo sapiens, UniProt Q5VWK5).
T1 sequence (Q5VWK5 whole entry): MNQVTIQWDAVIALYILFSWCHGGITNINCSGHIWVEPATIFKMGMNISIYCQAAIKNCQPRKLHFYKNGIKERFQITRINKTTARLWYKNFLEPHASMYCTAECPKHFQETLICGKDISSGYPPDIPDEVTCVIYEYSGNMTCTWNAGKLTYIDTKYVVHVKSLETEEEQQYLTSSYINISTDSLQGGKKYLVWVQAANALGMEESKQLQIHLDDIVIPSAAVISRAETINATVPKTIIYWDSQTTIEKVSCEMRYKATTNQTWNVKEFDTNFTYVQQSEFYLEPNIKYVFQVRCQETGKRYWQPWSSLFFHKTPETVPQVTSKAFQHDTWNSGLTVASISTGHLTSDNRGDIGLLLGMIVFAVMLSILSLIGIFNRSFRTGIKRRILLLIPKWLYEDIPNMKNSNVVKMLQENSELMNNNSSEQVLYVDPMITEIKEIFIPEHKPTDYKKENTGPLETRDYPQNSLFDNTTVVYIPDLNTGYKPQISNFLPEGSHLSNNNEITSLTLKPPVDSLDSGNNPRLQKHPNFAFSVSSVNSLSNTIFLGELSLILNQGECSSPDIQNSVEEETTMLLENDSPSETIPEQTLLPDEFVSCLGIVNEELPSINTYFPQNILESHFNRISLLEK
Put plainly: Inhibition of interleukin-23 binding to human interleukin-23 receptor incubated for 2 hrs by competitive binding ELISA.

For data set [3], the target named is T1, Interleukin-23 receptor. The data set can be described thus: Inhibition of interleukin-23 receptor in human DB cells assessed as reduction in IL-23-stimulated STAT3 phosphorylation incubated for 30 mins by HTRF assay. The data set is classed as cell-based.
Data set [4] can be described thus: Inhibition of interleukin-23 binding to rat interleukin-23 receptor incubated for 2 hrs by competitive binding ELISA.
Data set [5] in a line: Half life in DTT at 50 uM up up to 120 mins by reverse phase HPLC and UV detection based assay. The data set is classed as physicochemical.
Data set [6] deals with T2, Interleukin-23 receptor (Mus musculus, UniProt Q8K4B4).
T2 sequence (Q8K4B4 whole entry): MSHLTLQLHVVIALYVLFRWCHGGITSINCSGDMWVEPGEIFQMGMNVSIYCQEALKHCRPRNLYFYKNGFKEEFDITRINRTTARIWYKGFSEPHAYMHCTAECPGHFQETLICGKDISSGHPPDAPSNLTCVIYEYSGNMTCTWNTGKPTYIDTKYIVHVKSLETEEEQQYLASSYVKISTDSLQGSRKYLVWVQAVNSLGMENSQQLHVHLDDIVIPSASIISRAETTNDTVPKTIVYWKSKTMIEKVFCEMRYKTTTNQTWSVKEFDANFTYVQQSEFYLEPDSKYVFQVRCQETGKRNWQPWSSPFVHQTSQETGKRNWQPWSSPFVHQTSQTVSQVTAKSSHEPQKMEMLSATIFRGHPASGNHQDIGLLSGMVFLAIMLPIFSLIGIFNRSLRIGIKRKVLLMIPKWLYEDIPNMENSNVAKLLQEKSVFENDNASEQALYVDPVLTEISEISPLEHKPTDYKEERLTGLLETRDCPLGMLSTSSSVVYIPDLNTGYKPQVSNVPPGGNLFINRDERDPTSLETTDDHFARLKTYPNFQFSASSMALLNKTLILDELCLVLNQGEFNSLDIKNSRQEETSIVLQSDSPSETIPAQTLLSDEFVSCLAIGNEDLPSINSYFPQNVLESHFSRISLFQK
The data set can be described thus: Inhibition of interleukin-23 binding to mouse interleukin-23 receptor incubated for 2 hrs by competitive binding ELISA.

A short description of data set [7]: Inhibition of interleukin-23 binding to cynomolgus monkey interleukin-23 receptor incubated for 2 hrs by competitive binding ELISA. Set-up: species or system Macaca fascicularis.
Data set [8] in a line: Half life in simulated gastric fluid at 20 uM by LC-MS/MS analysis. It counts as ADME.
In data set [9] the target is T1, Interleukin-23 receptor. The data set can be described thus: Inhibition of interleukin-23 receptor in human natural killer cells assessed as reduction in IL23/IL18-induced IFNgamma production incubated for 20 to 24 hrs by ELISA. It counts as cell-based.

Molecules are shown by their SMILES. Where a SMILES comes first, the peptide text is derived from it. Bounds are passed on as bounds.

As to `CC(=O)N[C@H]1CCSC[C@@H](C(=O)N[C@@H](Cc2ccc(O)cc2)C(=O)N[C@@H](Cc2c[nH]c3ccccc23)C(=O)N[C@@H](CCCNC(=N)N)C(=O)N[C@@H](CCCCN)C(=O)N[C@@H](Cc2ccccc2)C(=O)NCC(=O)NCCOCC(=O)N[C@H](CCCCN)C(N)=O)NC(=O)[C@H](CCC(N)=O)NC(=O)[C@H](Cc2c[nH]c3ccccc23)NC(=O)[C@H]([C@@H](C)O)NC(=O)[C@H](CCCNC(=N)N)NC1=O`, in data set [1], the half-life at 20 µM was less than 1 h. Moreover, the half-maximal inhibitory concentration (IC50) at Interleukin-23 receptor [2] lay within 25 to 100 nM; on Interleukin-23 receptor [3] it was 25 to 100 nM; in data set [4], 100 to 1000 nM. In [5], this compound came in with a half-life at 50 µM greater than 2 h.
In the case of `N=C(N)NCCC[C@H](NC(=O)[C@@H](N)CS)C(=O)N[C@@H](CC(=O)O)C(=O)N[C@@H](Cc1c[nH]c2ccccc12)C(=O)N[C@@H](CCC(N)=O)C(=O)N[C@@H](CS)C(=O)N[C@@H](Cc1ccc(O)cc1)C(=O)N[C@@H](Cc1c[nH]c2ccccc12)C(=O)N[C@@H](Cc1cnc[nH]1)C(=O)N[C@@H](CCCCN)C(=O)N[C@@H](Cc1ccccc1)C(=O)NCC(N)=O` (H-CRDWQCYWHKFG-NH2), the IC50 on Interleukin-23 receptor [6] is greater than 25000 nM; at Interleukin-23 receptor [2] it was 251 to 1000 nM; in data set [4], 251 to 1000 nM.
For `CC(=O)N[C@H](C(=O)N[C@@H](CCC(N)=O)C(=O)N[C@H](C(=O)N[C@@H](Cc1c[nH]c2ccccc12)C(=O)N[C@@H](CCC(N)=O)C(=O)N[C@H](C(=O)N[C@@H](Cc1ccc(O)cc1)C(=O)N[C@@H](Cc1c[nH]c2ccccc12)C(=O)N[C@@](C)(CC(C)C)C(=O)N[C@@H](CCC(=O)O)C(=O)N[C@@H](CC(N)=O)C(=O)NCC(N)=O)C(C)(C)S)[C@@H](C)O)C(C)(C)S`, the half-life at 20 µM in data set [1] was 3 to 6 h. For the same compound, the 50% inhibitory concentration (IC50) fell in the range of 25 to 100 nM on Interleukin-23 receptor [2], 10 to 25 nM at Interleukin-23 receptor [3] and 100 to 1000 nM in [4]. The compound also came in with a half-life at 50 µM in [5] greater than 2 h.
Consider `CC(C)[C@H](NC(=O)[C@H](Cc1c[nH]c2ccccc12)NC(=O)[C@H](CC(=O)O)NC(=O)[C@H](C)NC(=O)[C@@H](N)CS)C(=O)N[C@@H](CS)C(=O)N[C@@H](Cc1ccc(O)cc1)C(=O)N[C@@H](Cc1c[nH]c2ccccc12)C(=O)N[C@@H](Cc1cnc[nH]1)C(=O)N[C@H](C(=O)N[C@@H](Cc1ccccc1)C(=O)NCC(N)=O)[C@@H](C)O`, for which the 50% inhibitory concentration (IC50) in [7] was 1000 to 10000 nM; at Interleukin-23 receptor [6], greater than 25000 nM; at Interleukin-23 receptor [2], 100 to 1000 nM; at Interleukin-23 receptor [3], 100 to 1000 nM; in data set [4] it was 251 to 1000 nM.
Compound `CC(=O)N[C@@H](CS)C(=O)N[C@@H](CCCNC(=N)N)C(=O)N[C@H](C(=O)N[C@@H](Cc1c[nH]c2ccccc12)C(=O)N[C@@H](CCC(=O)O)C(=O)N[C@@H](CS)C(=O)N[C@@H](Cc1ccc(O)cc1)C(=O)N[C@@H](Cc1c[nH]c2ccccc12)C(=O)N[C@@H](Cc1cnc[nH]1)C(=O)N[C@@H](CCC(=O)O)C(=O)N[C@@H](Cc1ccccc1)C(=O)NCC(N)=O)[C@@H](C)O` (Ac-CRTWECYWHEFG-NH2) came in with an IC50 at Interleukin-23 receptor [2] of less than 500 nM. Besides, the half-life at 50 µM in data set [5] is less than 0.167 h.
As for `COc1ccc(C[C@H](NC(=O)[C@@H](NC(=O)[C@H](CCC(N)=O)NC(=O)[C@H](Cc2c[nH]c3ccccc23)NC(=O)[C@@H](NC(=O)[C@H](CCC(N)=O)NC(=O)[C@@H](NC(C)=O)C(C)(C)S)[C@@H](C)O)C(C)(C)S)C(=O)N[C@@H](Cc2ccc3ccccc3c2)C(=O)N[C@@](C)(CCCCN)C(=O)N[C@@H](CCC(=O)O)C(=O)N[C@@H](CC(N)=O)C(=O)NCC(N)=O)cc1`, the figures for the half-life at 20 µM in data set [8] and in [1] were 2 to 3 h and 3 to 6 h, respectively. The concentration for half-maximal inhibition (IC50) lay in the range of 25 to 100 nM at Interleukin-23 receptor [2], 10 to 25 nM on Interleukin-23 receptor [3] and 100 to 1000 nM in [4]. This compound came in with a half-life at 50 µM in [5] greater than 2 h.
On to `CC(=O)N[C@@H](CS)C(=O)N[C@@H](C)C(=O)N[C@@H](CC(=O)O)C(=O)N[C@@H](Cc1c[nH]c2ccccc12)C(=O)N[C@H](C(=O)N[C@@H](Cc1c[nH]c2ccccc12)C(=O)N[C@@H](CS)C(=O)N[C@@H](Cc1ccc(O)cc1)C(=O)N[C@@H](Cc1c[nH]c2ccccc12)C(=O)N[C@@H](Cc1cnc[nH]1)C(=O)N[C@H](C(=O)N[C@@H](Cc1ccccc1)C(=O)NCC(=O)N[C@@H](C)C(=O)N1CC[C@H]1C(=O)N[C@H](CCCCN)C(N)=O)[C@@H](C)O)C(C)C`, for which the half-life at 50 µM in data set [5] lay in the range of 0.167 to 2 h.
In [5], `CC(=O)N[C@@H](CS)C(=O)N[C@@H](CCC(N)=O)C(=O)N[C@H](C(=O)N[C@@H](Cc1c[nH]c2ccccc12)C(=O)N[C@@H](CCC(N)=O)C(=O)N[C@@H](CS)C(=O)N[C@@H](Cc1ccc(O)cc1)C(=O)N[C@@H](Cc1c[nH]c2ccccc12)C(=O)N[C@@H](CCC(C)C)C(=O)N[C@@H](CCC(=O)O)C(=O)N[C@@H](CC(N)=O)C(=O)NCC(N)=O)[C@@H](C)O` came in with a half-life at 50 µM of 0.167 to 2 h.
Still for that read-out and setting: with `CC(=O)N[C@H]1CCSC[C@@H](C(=O)N[C@@H](Cc2ccc(OCCN)cc2)C(=O)N[C@@H](Cc2ccc3ccccc3c2)C(=O)NC2(C(=O)N[C@@H](CCC(=O)O)C(=O)N[C@@H](CC(N)=O)C(=O)N[C@@H](CC(N)=O)C(N)=O)CCOCC2)NC(=O)[C@H](CCC(N)=O)NC(=O)[C@H](Cc2c[nH]c3ccccc23)NC(=O)[C@H]([C@@H](C)O)NC(=O)[C@H](CCC(N)=O)NC1=O` the figure was greater than 2 h.
In [1], `CC(=O)N[C@H](C(=O)N[C@@H](CCC(N)=O)C(=O)N[C@H](C(=O)N[C@@H](Cc1c[nH]c2ccccc12)C(=O)N[C@@H](CCC(N)=O)C(=O)N[C@H](C(=O)N[C@@H](Cc1ccc(O)cc1)C(=O)N[C@@H](Cc1c[nH]c2ccccc12)C(=O)N[C@@H](CCC(C)C)C(=O)N[C@@H](CCC(=O)O)C(=O)N[C@@H](CC(N)=O)C(=O)NCC(N)=O)C(C)(C)S)[C@@H](C)O)C(C)(C)S` yielded a half-life at 20 µM of less than 1 h. Besides, the 50% inhibitory concentration (IC50) on Interleukin-23 receptor [2] was 100 to 1000 nM. In data set [5], this compound came in with a half-life at 50 µM greater than 2 h.
For `CC(=O)NCCCC[C@H](NC(=O)[C@](C)(CC(C)C)NC(=O)[C@H](Cc1ccc2ccccc2c1)NC(=O)[C@H](Cc1ccc(OCCN)cc1)NC(=O)[C@@H](NC(=O)[C@H](CCC(N)=O)NC(=O)[C@H](Cc1c[nH]c2ccccc12)NC(=O)[C@@H](NC(=O)[C@H](CCC(N)=O)NC(=O)[C@@H](NC(C)=O)C(C)(C)S)[C@@H](C)O)C(C)(C)S)C(=O)N[C@@H](CC(N)=O)C(=O)N[C@@H](CC(N)=O)C(N)=O`, the half-life at 20 µM in data set [8] was 3 to 6 h; in data set [1] it was 2 to 3 h. In addition, the IC50 (on Interleukin-23 receptor [2]; at Interleukin-23 receptor [3]; in [4]; at Interleukin-23 receptor [9]) was less than 10 nM each time.
Consider `CC(=O)NCCCC[C@H](NC(=O)C(C)(C)NC(=O)[C@H](Cc1ccc2ccccc2c1)NC(=O)[C@H](Cc1ccc(OCCN)cc1)NC(=O)[C@@H]1CSCC[C@H](NC(C)=O)C(=O)N[C@@H](CCC(N)=O)C(=O)N[C@@H]([C@@H](C)O)C(=O)N[C@@H](Cc2c[nH]c3ccccc23)C(=O)N[C@@H](CCC(N)=O)C(=O)N1)C(=O)N[C@@H](CC(N)=O)C(=O)N[C@@H](C)C(N)=O`, for which the values for the half-life at 20 µM in data set [8] and in data set [1] were less than 1 h and 1 to 2 h, respectively. Moreover, the 50% inhibitory concentration (IC50) at Interleukin-23 receptor [2] is less than 10 nM; at Interleukin-23 receptor [3], less than 10 nM; in data set [4], 10 to 25 nM; at Interleukin-23 receptor [9], less than 25 nM.
